Test results taken from paper doi:10.1101/2024.05.06.592687v1 (bioRxiv, 2024).
“Also recorded” adds a separate entry of the source.

What was measured:
[1] = assay type: physicochemical; conditions: 800 μM
[2] = Hexapeptide aggregative properties; assay type: physicochemical; conditions: for Aggregation properties, in words: 800 μM (16p: 288 μM)
[3] = Cryo-EM of peptide sample; assay type: physicochemical; conditions: data not shown
[4] = Negative staining transmission electron microscopy of peptide structures; assay type: physicochemical; conditions: for Structure (TEM): negative staining, 1% uranyl acetate; for Diameter / Structures comments / Pitch length / Width / Diameter, Tight / Diameter, Wide: negative staining TEM
[5] = Reversibility of polymerized structures by dilution; assay type: physicochemical; conditions: polymerized at 2x Cr, diluted 8-fold to 0.25 Cr
[6] = Critical assembly concentration; assay type: physicochemical; conditions: sedimentable versus total peptide concentration
[7] = Hexapeptide amyloidogenicity; assay type: physicochemical; conditions: 800 μM (16p: 288 μM)
[8] = Solubility of hexapeptides in water; assay type: physicochemical; conditions: deionized water

Substance | Classification of the peptide (aggregative / amyloid / soluble), in words [1] | Aggregation properties, in words [2] | Structure (TEM) [4] | Structures comments [4] | further results
IKQVYV [5p] | entirely soluble; also recorded: non-aggregative | very weak | – | – | –
IYVQKV [9p] | entirely soluble; also recorded: non-aggregative | no | crystal structures | – | Structures seen by Cryo-EM [3]: absence of structures
KQIVYV [20p] | aggregative | – | fibrillar structures; also recorded: Filament/strand bundles | Homogeneous / bundles | Diameter [4]: 13 ± 2 nm
KVQIVY [10p] | aggregative | – | structures resembling ribbons; also recorded: Rather flat and tight ribbons | Heterogeneous | –
KVQYVI [14p] | entirely soluble | no | – | – | –
KYIQVV [2p] | aggregative; also recorded: strong aggregation potential | – | structures resembling ribbons; also recorded: Ribbons/ Filaments | – | Diameter [4]: 10 ± 2 nm
KYVIQV [15p] | aggregative; also recorded: strong aggregation potential | – | structures resembling ribbons; also recorded: Twisted ribbons | Rather homogeneous | Reversion of structures after dilution, in words [5]: only partial; Slope of the Cr linear regression [6]: 1.1; Pitch length [4]: 196 ± 34 nm; Width [4]: 21 ± 2 nm
QKVVYI [18p] | amyloid | – | fibrillar structures | Heterogeneous | Reversion of structures after dilution, in words [5]: almost total reversion; Slope of the Cr linear regression [6]: 0.84; Diameter, Tight [4]: 9 nm; Diameter, Wide [4]: 18 nm; Pitch length [4]: 107 ± 14 nm; Width [4]: 29 ± 7 nm; Structure (TEM) ([4]; listed as 18p*): Twisted ribbons/fibers
QKVYIV [19p] | aggregative | – | fibrillar structures; also recorded: Tangle ribbons | Few twists and bundles | Width [4]: 11± 3 nm
QKYIVV [8p] | entirely soluble | no | – | – | –
QVIKYV [23p] | entirely soluble; also recorded: non-aggregative | very weak | – | – | –
VKVIYQ [7p] | aggregative; also recorded: strong aggregation potential | – | fibrillar structures; also recorded: Twisted fibers | Homogeneous perpendicular breaks | Amyloidogenicity by Thioflavin T fluorescence, in words [7]: without fluorescence; Diameter [4]: 17 ± 4 nm; Pitch length [4]: 138 ± 12 nm
VKVYIQ [11p] | amyloid; also recorded: amyloidogenic character | – | fibrillar structures | – | Reversion of structures after dilution, in words [5]: almost total reversion; Slope of the Cr linear regression [6]: 0.74; Diameter [4]: 5 ± 1 nm; Structure (TEM) ([4]; listed as 11p*): Stringy filaments/fibers
VKYQVI [3p] | entirely soluble; also recorded: non-aggregative | very weak | – | – | –
VQIVYK [ß1, reference compound] | – | – | fibrillar structures | Rather homogeneous | Diameter [4]: 9 ± 2 nm; Pitch length [4]: 105 ± 20 nm; Diameter ([4]; listed as β1): ~10 nm; Pitch length ([4]; listed as β1): ~100 nm; Structure (TEM) ([4]; listed as ß1*): Double/Twisted fibers
VQKIYV [4p] | entirely soluble; also recorded: non-aggregative | no | – | – | –
VQVIYK [12p] | amyloid | – | fibrillar structures | Twisting of at least four filaments | Reversion of structures after dilution, in words [5]: almost total reversion; Diameter, Tight [4]: 7 nm; Diameter, Wide [4]: 15 nm; Pitch length [4]: 177 ± 26 nm; Structure (TEM) ([4]; listed as 12p*): Twisted Stringy filaments/fibers
VQVKYI [21p] | amyloid; also recorded: amyloidogenic character | – | globular/ovoid structures | Variable size / aggregates | Reversion of structures after dilution, in words [5]: almost total reversion; Diameter [4]: 25 ± 6 nm; Structure (TEM) ([4]; listed as 21p*): Globular/ovoid
VQVYKI [22p] | aggregative; also recorded: soluble | – | fibrillar structures; also recorded: Twisted ribbons bundles/fibers | Highly heterogeneous | –
VVQKYI [6p] | entirely soluble; also recorded: non-aggregative | very weak | – | – | –
YIVVQK [13p] | entirely soluble | no | – | – | –
YQVIVK [17p] | aggregative | – | structures resembling ribbons | Flat/short tangled, heterogeneous | Amyloidogenicity by Thioflavin T fluorescence, in words [7]: without fluorescence; Width [4]: 14 ± 2 nm
YQVKIV [16p] | strong aggregation potential | strong aggregation | structures resembling ribbons; also recorded: Rather ribbons | Very homogeneous, perpendicular breaks | Amyloidogenicity by Thioflavin T fluorescence, in words [7]: not amyloidogenic; Solubility in water, in words [8]: poor solubility in water; Solubility in water, in words ([8]; listed as 16p*): low solubility in water; Pitch length [4]: 44 ± 4 nm; Width [4]: 22±3 nm; Aggregation Threshold ([2]; 16p studied at ~290 μM (288 μM) due to poor solubility in water): 17 µM
